Measurements published in ChEMBL document CHEMBL1201862, “PubChem BioAssay data set” (2004).
The source made the active and inactive calls.

Assays:
[1] = target: T1, Mannose-6-phosphate isomerase (Homo sapiens, UniProt P34949); assay: inhibitors of human PMI, primary screen, biochemical, fluorescence intensity, coupled assay (AID 1209)
T1 sequence (P34949 whole entry): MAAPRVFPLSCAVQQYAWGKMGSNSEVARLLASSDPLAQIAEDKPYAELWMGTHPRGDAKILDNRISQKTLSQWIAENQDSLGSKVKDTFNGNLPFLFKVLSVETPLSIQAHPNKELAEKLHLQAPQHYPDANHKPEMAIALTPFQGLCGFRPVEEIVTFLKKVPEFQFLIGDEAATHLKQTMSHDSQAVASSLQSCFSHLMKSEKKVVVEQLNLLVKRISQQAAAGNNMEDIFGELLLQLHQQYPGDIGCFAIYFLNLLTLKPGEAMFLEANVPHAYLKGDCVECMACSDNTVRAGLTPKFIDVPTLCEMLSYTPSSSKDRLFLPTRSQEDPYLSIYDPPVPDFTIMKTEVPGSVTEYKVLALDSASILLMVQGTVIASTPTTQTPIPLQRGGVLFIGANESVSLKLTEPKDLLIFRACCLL

[2] = target: Mucolipin-3 (Homo sapiens, UniProt Q8TDD5); assay: Dose response cell-based high-throughput screening assay for agonists of the transient receptor potential channel ML3 (TRPML3). [Related pubchem assays: 1526, 1424, 1448 ]; format: functional
Chain of Mucolipin-3 (Q8TDD5 whole entry): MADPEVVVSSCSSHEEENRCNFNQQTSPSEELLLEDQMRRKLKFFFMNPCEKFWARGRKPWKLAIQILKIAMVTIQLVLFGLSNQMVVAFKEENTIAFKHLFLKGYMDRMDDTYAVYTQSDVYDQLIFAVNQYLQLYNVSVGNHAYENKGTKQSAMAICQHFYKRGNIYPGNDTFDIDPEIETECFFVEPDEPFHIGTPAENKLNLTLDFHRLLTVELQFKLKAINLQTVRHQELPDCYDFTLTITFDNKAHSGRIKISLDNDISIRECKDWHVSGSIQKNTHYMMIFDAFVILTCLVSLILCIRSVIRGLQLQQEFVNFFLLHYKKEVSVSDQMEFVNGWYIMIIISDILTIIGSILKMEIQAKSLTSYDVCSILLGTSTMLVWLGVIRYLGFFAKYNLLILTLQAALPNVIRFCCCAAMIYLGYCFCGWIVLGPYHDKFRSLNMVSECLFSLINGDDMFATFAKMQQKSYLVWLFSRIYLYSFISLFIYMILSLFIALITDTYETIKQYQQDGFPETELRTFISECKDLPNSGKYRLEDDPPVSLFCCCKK

[3] = target: Ion channel NompC (Danio rerio, UniProt Q7T1G6); assay: Fluorescence counterscreen assay for TRPML3 agonists: dose response cell-based high-throughput screening assay to identify agonists of the transient receptor potential channel N1 (TRPN1). [Related pubchem assays: 1526, 1424, 1448 ]; format: functional
Chain of Ion channel NompC (Q7T1G6 whole entry): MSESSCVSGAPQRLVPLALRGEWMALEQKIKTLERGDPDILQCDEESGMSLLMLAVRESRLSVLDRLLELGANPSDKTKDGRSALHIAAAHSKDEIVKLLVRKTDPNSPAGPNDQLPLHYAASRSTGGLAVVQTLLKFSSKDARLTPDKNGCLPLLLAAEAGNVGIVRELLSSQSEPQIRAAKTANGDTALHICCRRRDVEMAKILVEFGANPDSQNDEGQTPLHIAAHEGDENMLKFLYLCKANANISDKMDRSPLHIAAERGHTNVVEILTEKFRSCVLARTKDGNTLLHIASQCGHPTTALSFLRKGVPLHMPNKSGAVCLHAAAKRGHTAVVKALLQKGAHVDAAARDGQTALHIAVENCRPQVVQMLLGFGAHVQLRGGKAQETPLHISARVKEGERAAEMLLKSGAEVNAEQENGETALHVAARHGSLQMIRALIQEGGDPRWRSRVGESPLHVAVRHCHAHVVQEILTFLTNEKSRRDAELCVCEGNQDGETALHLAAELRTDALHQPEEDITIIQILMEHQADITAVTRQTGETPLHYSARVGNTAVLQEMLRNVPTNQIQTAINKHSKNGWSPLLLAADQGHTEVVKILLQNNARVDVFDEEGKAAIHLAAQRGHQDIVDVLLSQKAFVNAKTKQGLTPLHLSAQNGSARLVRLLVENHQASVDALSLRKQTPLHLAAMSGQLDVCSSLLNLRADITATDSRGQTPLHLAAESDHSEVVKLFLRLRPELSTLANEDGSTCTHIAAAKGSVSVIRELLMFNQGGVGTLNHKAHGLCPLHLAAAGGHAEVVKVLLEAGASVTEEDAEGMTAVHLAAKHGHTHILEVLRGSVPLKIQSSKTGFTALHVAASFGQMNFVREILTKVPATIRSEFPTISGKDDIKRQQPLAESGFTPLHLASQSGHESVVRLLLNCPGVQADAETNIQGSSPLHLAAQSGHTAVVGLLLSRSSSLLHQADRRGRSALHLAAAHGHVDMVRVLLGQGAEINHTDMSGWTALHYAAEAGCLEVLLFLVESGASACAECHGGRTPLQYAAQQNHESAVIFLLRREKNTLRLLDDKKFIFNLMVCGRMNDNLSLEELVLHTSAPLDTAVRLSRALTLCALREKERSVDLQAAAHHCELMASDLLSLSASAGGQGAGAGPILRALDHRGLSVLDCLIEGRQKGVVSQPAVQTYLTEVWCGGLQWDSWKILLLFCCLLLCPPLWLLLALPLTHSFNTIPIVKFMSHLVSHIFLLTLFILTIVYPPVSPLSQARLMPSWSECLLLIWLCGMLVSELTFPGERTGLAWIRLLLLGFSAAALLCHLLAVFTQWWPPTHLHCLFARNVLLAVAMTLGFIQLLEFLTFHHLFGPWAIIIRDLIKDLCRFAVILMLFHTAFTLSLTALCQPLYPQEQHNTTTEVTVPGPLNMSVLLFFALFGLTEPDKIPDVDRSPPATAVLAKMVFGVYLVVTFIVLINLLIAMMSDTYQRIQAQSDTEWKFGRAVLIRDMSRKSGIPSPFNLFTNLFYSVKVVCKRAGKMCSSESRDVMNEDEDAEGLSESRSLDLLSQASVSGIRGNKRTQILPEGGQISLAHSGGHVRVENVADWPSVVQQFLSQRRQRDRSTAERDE

[4] = HEp-2 cell cytotoxicity, dose response, cytotoxicity control for RSV inhibitor project, HTS (AID 2410); format: functional; conditions: human respiratory syncytial virus
[5] = inhibitors of HIV Env-driven cell fusion, dose response, cherry-pick (AID 652057); format: functional, cell-based
[6] = ZM109 Env clade C HIV-1 fusion inhibitors, dose response, HeLa effector, CEM target cells, luciferase, cherry-pick (AID 652058); format: functional, cell-based
[7] = off-target signal loss in HeLa-CEM21 co-culture – HeLa F-luc CTL cells, cherry-picked, counter-screen for HIV-1 Env fusion inhibitor project, dose response (AID 652040); format: functional, cell-based;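 further: potency for signal decrease marking cytotoxic or nonspecific inhibition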
[8] = inhibitors of clade B AD8 Env fusion, dose response, cell-based, cherry-pick (AID 652062); format: functional;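 further: luciferase signal from cell-cell fusion driven by HIV-1 clade B AD8 Env; potency is for inhibitors of fusion seen as a drop in luminescence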
[9] = cells
[10] = target: Peroxisome proliferator-activated receptor gamma/Nuclear receptor coactivator 2 (Homo sapiens, UniProt P37231); format: functional;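 further: agonist potency for raising coactivator recruitment to the receptor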
[11] = target: Peroxisome proliferator-activated receptor gamma/Nuclear receptor coactivator 1 (Homo sapiens, UniProt P37231); format: functional;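 further: agonist potency as compounds enhance coactivator SRC-1 recruitment to PPARgamma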
[12] = target: Peroxisome proliferator-activated receptor gamma/Nuclear receptor coactivator 3 (Homo sapiens, UniProt P37231); format: functional;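 further: agonist potency for raising coactivator recruitment to the receptor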
[13] = inhibitors of intracellular T. cruzi replication, confirmation, NIH3T3 host cells, beta-gal luminescence (AID 2044); format: functional, cell-based;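 further: intracellular parasites grown in NIH/3T3 mouse fibroblasts as host cells; luminescent beta-galactosidase reporter signal from transgenic T. cruzi replicating inside host cells; inhibitors lower the luminescence signal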
[14] = cytotoxicity toward NIH3T3 fibroblasts, dose response, counter-screen, cell-based, ATP luminescence, mouse fibroblasts (AID 2010); format: functional;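 further: cells exposed to compound for about 90 hours before reading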
[15] = target: Ephrin type-A receptor 4 (Mus musculus, UniProt Q03137); assay: inhibitors of EphA4 binding to KYL peptide, primary screen, biochemical, colorimetric, mouse EphA4 (AID 689); format: functional
[16] = target: Cytochrome P450 2C19 (Homo sapiens, UniProt P33261); assay: qHTS Assay for Inhibitors and Substrates of Cytochrome P450 2C19. [Related pubchem assays: 410 ]; format: ADME; conditions: read-out: Potency
Chain of Cytochrome P450 2C19 (P33261 whole entry): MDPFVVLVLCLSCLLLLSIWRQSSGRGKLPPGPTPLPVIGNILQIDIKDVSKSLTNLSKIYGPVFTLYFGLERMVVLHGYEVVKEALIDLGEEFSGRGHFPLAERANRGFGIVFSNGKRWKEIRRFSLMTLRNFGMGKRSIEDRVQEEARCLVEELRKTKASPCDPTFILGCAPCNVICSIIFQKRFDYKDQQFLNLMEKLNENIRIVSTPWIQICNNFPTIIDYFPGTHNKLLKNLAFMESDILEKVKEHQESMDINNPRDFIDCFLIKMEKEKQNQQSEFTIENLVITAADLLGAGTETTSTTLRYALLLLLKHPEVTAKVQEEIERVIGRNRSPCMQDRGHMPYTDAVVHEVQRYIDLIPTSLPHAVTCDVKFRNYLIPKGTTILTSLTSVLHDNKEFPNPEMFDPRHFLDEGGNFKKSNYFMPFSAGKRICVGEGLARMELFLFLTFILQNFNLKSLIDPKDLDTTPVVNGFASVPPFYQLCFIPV

[17] = target: Voltage-gated inwardly rectifying potassium channel KCNH2 (Homo sapiens, UniProt Q12809); assay: hERG protection from proarrhythmic block, potency, dose response, cell-based, thallium flux (AID 2121); format: ADME
Chain of Voltage-gated inwardly rectifying potassium channel KCNH2 (Q12809 whole entry): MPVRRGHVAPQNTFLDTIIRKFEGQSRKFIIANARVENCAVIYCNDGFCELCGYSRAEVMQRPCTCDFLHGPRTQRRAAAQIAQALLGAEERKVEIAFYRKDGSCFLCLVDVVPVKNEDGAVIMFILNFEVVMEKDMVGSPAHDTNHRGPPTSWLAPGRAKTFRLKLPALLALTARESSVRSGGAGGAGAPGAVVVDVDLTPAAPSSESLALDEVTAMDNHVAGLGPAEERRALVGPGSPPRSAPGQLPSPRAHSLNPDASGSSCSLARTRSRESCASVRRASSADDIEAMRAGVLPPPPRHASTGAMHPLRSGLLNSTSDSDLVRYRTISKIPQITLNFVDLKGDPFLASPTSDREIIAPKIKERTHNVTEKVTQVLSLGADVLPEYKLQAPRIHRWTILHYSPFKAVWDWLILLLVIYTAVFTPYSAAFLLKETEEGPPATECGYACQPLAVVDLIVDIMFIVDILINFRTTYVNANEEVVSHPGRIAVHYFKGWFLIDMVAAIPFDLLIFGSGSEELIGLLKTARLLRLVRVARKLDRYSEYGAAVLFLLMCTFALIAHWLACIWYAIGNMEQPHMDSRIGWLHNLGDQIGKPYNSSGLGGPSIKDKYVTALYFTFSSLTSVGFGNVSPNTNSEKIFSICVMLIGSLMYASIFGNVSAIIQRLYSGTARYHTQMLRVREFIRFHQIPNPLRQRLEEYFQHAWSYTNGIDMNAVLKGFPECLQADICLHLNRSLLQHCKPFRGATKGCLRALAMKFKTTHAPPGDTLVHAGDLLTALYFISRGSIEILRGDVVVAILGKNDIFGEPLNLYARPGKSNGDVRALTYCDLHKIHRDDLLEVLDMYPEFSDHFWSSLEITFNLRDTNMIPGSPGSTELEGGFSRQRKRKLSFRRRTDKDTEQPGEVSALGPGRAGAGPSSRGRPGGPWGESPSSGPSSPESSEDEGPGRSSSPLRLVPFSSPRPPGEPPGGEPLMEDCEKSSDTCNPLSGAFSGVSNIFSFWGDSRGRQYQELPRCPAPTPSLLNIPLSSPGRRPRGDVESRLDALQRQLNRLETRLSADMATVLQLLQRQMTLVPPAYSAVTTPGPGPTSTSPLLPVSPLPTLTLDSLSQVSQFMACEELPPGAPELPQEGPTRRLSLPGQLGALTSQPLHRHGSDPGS

[18] = target: Mitogen-activated protein kinase 10 (Homo sapiens, UniProt P53779); assay: Dose response biochemical screening assay for inhibitors of c-Jun N-Terminal Kinase 3 (JNK3). [Related pubchem assays: 746 ]
[19] = target: FAD-linked sulfhydryl oxidase ALR (Homo sapiens, UniProt P55789); assay: inhibitors of human ALR sulfhydryl oxidase, dose response, biochemical, H2O2 detection, luminescence, cherry-pick (AID 493248)
Chain of FAD-linked sulfhydryl oxidase ALR (P55789 whole entry): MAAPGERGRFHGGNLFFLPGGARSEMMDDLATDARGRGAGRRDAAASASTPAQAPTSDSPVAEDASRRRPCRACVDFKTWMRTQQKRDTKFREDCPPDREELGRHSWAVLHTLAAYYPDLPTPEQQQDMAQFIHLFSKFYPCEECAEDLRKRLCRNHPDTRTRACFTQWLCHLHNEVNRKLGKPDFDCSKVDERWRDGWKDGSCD

[20] = NIH-3T3 fibroblast cytotoxicity, dose response, cytotoxicity control, cell-based, fluorescence, Alamar Blue, secondary assay (AID 2327); format: functional;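 further: NIH-3T3 mouse fibroblasts cultured with fluconazole at 8 µg/mL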
[21] = inhibitors of firefly luciferase expression or activity, dose response, H4 neuroglioma cells, luminescence (AID 1990); format: functional, cell-based
[22] = cells; format: functional, cell-based
[23] = Luminescence Cell-Based Dose Response HTS to Identify Inhibitors of 5'UTR Stem-Loop Driven Prion Protein mRNA Translation in H4 Neuroglioblastoma Cells. [Related pubchem assays: 1827 (Project Summary), 1813 (Primary HTS)]; format: functional
[24] = inhibitors of SNCA 5'UTR-driven reporter translation, confirmation, H4 neuroglioma cells, luminescence (AID 1988); format: functional, cell-based
[25] = C. albicans growth with fluconazole, confirmation, fluorescence, retest (AID 2467); format: functional, cell-based
[26] = cells; format: functional, cell-based; remark: listed apart in the source
[27] = Luminescence Cell-Based Dose Retest to Confirm Inhibitors of Cancer Stem Cells. [Related pubchem assays (depositor defined):AID2717, AID2721]; format: functional; conditions: Homo sapiens
[28] = target: Nonstructural protein 1 (Influenza A virus, UniProt Q194T2); format: functional, Influenza A virus (A/California/07/2009(H1N1))
[29] = tested on: HEK293; assay: inhibitors of LMP1-driven NF-kB reporter, dose response, cell-based, HEK293, luciferase, cherry-pick (AID 588343); format: functional; conditions: Homo sapiens
[30] = tested on: INS1; assay: beta cell apoptosis inhibitors, cytokine rescue, dose response, luminescence, retest (AID 449756); format: functional, cell-based; conditions: Rattus norvegicus;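 further: cell death triggered by IL-1 beta plus TNF-alpha plus IFN-gamma mixture; protective hits raise ATP signal compared with cytokine alone wells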
[31] = Vero cell cytotoxicity, dose response, cytotoxicity control for Vif-APOBEC3G degradation inhibitor project, Vero cells (AID 1117358); format: functional; conditions: Human immunodeficiency virus 1, Vero
[32] = tested on: HEK293; assay: NOD1 signaling inhibitors, primary screen, cell-based, luminescence, uHTS (AID 1578); format: functional; conditions: Homo sapiens
[33] = tested on: BJ; assay: cytotoxicity toward BJ-TERT fibroblasts, dose response, cell-based, RAS-independent, luminescence (AID 1933); format: functional; conditions: Homo sapiens
[34] = tested on: HEK293; assay: cells; format: functional, cell-based; conditions: Homo sapiens
[35] = tested on: BJ; assay: cells; format: functional, cell-based; conditions: Homo sapiens
[36] = tested on: HEK293; assay: cells; format: functional, cell-based; conditions: Homo sapiens; remark: listed apart in the source
[37] = target: Nucleotide-binding oligomerization domain-containing protein 2 (Homo sapiens, UniProt Q9HC29); assay: NOD2 signaling inhibitors, cell-based, luminescence, uHTS, HEK293 (AID 1566); format: functional
Chain of Nucleotide-binding oligomerization domain-containing protein 2 (Q9HC29 whole entry, the tested form may be a part): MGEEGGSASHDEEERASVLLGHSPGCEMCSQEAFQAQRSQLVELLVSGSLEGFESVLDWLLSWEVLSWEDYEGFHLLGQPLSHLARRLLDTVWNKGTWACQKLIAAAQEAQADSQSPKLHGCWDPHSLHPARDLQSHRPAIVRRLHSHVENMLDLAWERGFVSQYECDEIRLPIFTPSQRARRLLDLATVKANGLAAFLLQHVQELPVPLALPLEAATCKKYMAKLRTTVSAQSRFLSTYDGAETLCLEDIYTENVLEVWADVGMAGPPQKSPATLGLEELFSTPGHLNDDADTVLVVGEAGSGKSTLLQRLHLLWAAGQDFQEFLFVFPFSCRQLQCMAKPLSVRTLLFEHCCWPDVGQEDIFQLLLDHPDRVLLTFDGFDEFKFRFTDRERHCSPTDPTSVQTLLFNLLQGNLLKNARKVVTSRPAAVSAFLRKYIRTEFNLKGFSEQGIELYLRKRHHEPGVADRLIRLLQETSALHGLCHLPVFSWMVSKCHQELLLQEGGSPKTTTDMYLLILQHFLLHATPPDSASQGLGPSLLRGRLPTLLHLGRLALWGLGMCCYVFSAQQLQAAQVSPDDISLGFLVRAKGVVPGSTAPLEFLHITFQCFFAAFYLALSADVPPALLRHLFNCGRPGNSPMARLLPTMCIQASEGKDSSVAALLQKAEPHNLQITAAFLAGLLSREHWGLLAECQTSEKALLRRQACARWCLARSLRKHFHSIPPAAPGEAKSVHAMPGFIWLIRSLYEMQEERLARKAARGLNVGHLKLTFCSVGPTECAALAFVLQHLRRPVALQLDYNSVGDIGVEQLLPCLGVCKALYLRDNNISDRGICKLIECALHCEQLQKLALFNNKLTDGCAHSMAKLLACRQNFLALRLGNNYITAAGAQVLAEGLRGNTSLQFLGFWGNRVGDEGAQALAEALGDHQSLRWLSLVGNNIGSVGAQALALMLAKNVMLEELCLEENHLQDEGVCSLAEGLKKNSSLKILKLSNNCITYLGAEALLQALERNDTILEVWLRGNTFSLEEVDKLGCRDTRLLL

[38] = tested on: HEK293; assay: NOD2 signaling inhibitors in MDP-stimulated cells, cell-based, uHTS, luminescence (AID 2001); format: functional; conditions: Homo sapiens
[39] = tested on: HEK293; assay: cells; format: functional, cell-based; conditions: Homo sapiens; remark: listed apart in the source
[40] = target: T2, Serine/threonine-protein phosphatase (Candida dubliniensis (strain CD36 / CBS 7987 / NCPF 3949 / NRRLY-17841) (Yeast), UniProt B9W6M3); assay: calcineurin pathway inhibitors in yeast reporter, dose response, S. cerevisiae, CDRE-lacZ, luminescence, secondary (AID 2388); format: functional, cell-based;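 further: yeast reporter cells carrying a calcineurin-responsive lacZ construct stimulated with calcium chloride; luminescent beta-galactosidase reporter signal in whole cells rather than isolated phosphatase activity; potency for inhibition where a drop in reporter signal means calcineurin blockade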
T2 sequence (B9W6M3 whole entry): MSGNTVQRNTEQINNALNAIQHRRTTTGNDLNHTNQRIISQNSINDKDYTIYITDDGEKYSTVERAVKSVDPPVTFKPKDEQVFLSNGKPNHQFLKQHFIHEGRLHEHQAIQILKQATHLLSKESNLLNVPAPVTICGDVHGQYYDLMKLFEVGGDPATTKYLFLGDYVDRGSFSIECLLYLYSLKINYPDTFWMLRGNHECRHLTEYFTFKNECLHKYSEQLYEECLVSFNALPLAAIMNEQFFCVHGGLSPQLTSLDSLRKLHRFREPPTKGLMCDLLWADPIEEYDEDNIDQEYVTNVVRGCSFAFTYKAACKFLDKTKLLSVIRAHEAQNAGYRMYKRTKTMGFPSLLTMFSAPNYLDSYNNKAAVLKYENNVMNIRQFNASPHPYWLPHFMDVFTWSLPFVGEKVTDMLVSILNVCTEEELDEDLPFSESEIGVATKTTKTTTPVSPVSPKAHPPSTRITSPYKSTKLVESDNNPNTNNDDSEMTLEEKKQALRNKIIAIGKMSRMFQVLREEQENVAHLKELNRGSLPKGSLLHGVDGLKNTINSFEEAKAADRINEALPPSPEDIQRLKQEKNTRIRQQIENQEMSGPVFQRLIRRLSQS

[41] = tested on: BJ; assay: cytotoxicity toward BJ-TERT-LT-ST fibroblasts, dose response, cell-based, RAS-independent, luminescence (AID 1935); format: functional; conditions: Homo sapiens;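 further: BJ fibroblasts immortalized with TERT plus LT and ST oncogenes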
[42] = cytotoxicity toward DRD oncogenic fibroblasts, dose response, cell-based, non-viral oncogenic, luminescence (AID 1934); format: functional; conditions: Homo sapiens
[43] = target: Heat shock protein HSP 90-alpha (Homo sapiens, UniProt P07900); format: functional, organism-based
[44] = tested on: Vero; assay: cells; format: functional, cell-based; conditions: Chlorocebus sabaeus
[45] = tested on: BJ; assay: cytotoxicity toward Ras-transformed BJeLR fibroblasts, dose response, cell-based, alamar blue fluorescence, cherrypicked samples (AID 2631); format: functional; conditions: Homo sapiens;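 further: confirmatory dose-response assay in RAS-dependent BJ fibroblasts engineered with TERT, LT and ST, with cytotoxicity read by fluorescence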
[46] = tested on: Vero; assay: cells; format: functional; conditions: Chlorocebus sabaeus
[47] = target: ATP-dependent molecular chaperone HSP82 (Candida albicans (strain WO-1) (Yeast), UniProt C4YTQ8); assay: loss of DOC-induced GRE-beta-galactosidase reporter signal, dose response, Hsp90 inhibitor project, S. cerevisiae, luminescence (AID 2400); format: functional, cell-based;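 further: beta-galactosidase luminescence from glucocorticoid response element reporter as proxy for Hsp90 function; inhibitor potency where signal loss means Hsp90 inhibition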

O=C(O)c1cccc(N/N=C/c2cccnc2)c1
IC50 [1]: > 50 µM (not active)

Cc1ccc(S(=O)(=O)N2CC3CCCC2C3)cc1 (stereo not given)
EC50 [2]: 3.78 µM (active)
EC50 [3]: > 29.9 µM (not active)

O=C(NCc1ccco1)c1ccc(Cn2c(=O)c3ccccc3n(Cc3ccc(Cl)cc3)c2=O)cc1
CC50 [4]: > 50 µM (active)
AC50 [5]: 0.669 µM (active)
AC50 [6]: 1.48 µM (active)
AC50 [7]: 0.421 µM (active)
AC50 [8]: 5.95 µM (active)
IC50 [9]: 0.58 µM (active)

COc1cc(C)ccc1S(=O)(=O)N1CCCCCC1
EC50 [2]: 2.84 µM (active)
EC50 [3]: > 29.9 µM (not active)

CC(=O)Nc1c(O)nc(SCC(=O)Nc2ccc(C(C)=O)cc2)[nH]c1=O
EC50 [10]: > 79.4 µM (not active)
EC50 [11]: > 79.4 µM (not active)
EC50 [12]: > 79.4 µM (not active)

Cc1ccc(C)c(N(CC(=O)N/N=C/c2ccc(-c3ccc([N+](=O)[O-])cc3)o2)S(=O)(=O)c2ccccc2)c1
EC50 [13]: 1.65 µM (active)
EC50 [14]: > 30 µM (not active)
IC50 [15]: > 100 µM (not active)

O=c1cc(-c2ccc(O)c(O)c2)oc2cccc(O)c12
AC50 [16]: 15.8 µM (inconclusive)

CC(C)c1ccc(/C=N/n2c(S)nnc2COc2ccccc2)cc1
EC50 [17]: 7.6 µM (active)

c1ccc(Nc2ccccc2Nc2ccccn2)nc1
IC50 [18]: 18.4 µM (not active)
AC50 [19]: 0.773 µM (active)

COc1cnn(-c2ccccc2)c(=O)c1N(C)C
EC50 [10]: > 79.4 µM (not active)
EC50 [11]: > 79.4 µM (not active)
EC50 [12]: > 79.4 µM (not active)

CCOc1ccc2c(c1)C(C)=CC(C)(C)N2C(=O)Nc1ccccc1
IC50 [1]: > 50 µM (not active)

Oc1ccccc1/C=N/Nc1nccnc1Cl
EC50 [20]: 38.5 µM (active)
EC50 [21]: 9.08 µM (active)
EC50 [22]: 9.82 µM (active)
EC50 [23]: 9.43 µM (active)
EC50 [24]: 4.65 µM (active)
EC50 [25]: 1.06 µM (active)
EC50 [26]: 7.95 µM (active)
AC50 [27]: 6.46 µM (active)
IC50 [28]: 15.9 µM (active)
AC50 [29]: 14.9 µM (active)
AC50 [30]: 0.747 µM (active)
CC50 [31]: 8.61 µM (active)

COc1cccc(N=Nc2ccc(O)c3ncccc23)c1
EC50 [20]: > 160 µM (inactive)
EC50 [32]: 3.74 µM (active)
EC50 [33]: 7.7 µM (inconclusive)
IC50 [34]: 3.04 µM (active)
EC50 [35]: 2.8 µM (inconclusive)
EC50 [25]: 0.79 µM (active)
IC50 [36]: > 20 µM (inactive)
EC50 [37]: > 20 µM (inactive)
IC50 [38]: 3.4 µM (inactive)
IC50 [39]: > 20 µM (inactive)
EC50 [40]: > 180 µM (inactive)
EC50 [17]: 2.99 µM (active)
EC50 [41]: 8.08 µM (inconclusive)
EC50 [42]: 12.7 µM (inconclusive)
AC50 [29]: 3.6 µM (active)
AC50 [43]: 4.01 µM (active)
IC50 [44]: > 25 µM (active)
EC50 [45]: 1.05 µM (active)
AC50 [30]: 2.1 µM (active)
CC50 [46]: 6.41 µM (active)
EC50 [47]: 13.6 µM (active)

CCN(CC(=O)Nc1cc(Cl)ccc1C)C(=O)CSCc1ccc(C)cc1
CC50 [4]: 24.5 µM (active)
IC50 [9]: 22.8 µM (active)
